From the supplement of paper PMC6045584
± gives the standard deviation of the averaged measurements.

How the values were obtained:
GEFITINIB = compound: COc1cc2ncnc(Nc3ccc(F)c(Cl)c3)c2cc1OCCCN1CCOCC1 [GEFITINIB]; experiment: surviving fraction relative to DMSO-only wells; higher = less growth inhibition; details: exposure time: 5 days
Outline: (§1)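 A line counted only if its three screens reached replicate Pearson r >0.7 and median Z' >0.3. Tumour cells in log phase were seeded at 250–500 per well in 384-well plates and, after 24 hours, kept in continuous contact with inhibitors at 0.5, 1, 5, 10, 50, 100, 500 and 1000 nM for five days. Surviving fraction was taken from CellTiter-Glo luminescence relative to the median of DMSO-only wells.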

CELECOXIB = compound: Cc1ccc(-c2cc(C(F)(F)F)nn2-c2ccc(S(N)(=O)=O)cc2)cc1 [CELECOXIB]; experiment: as above; details: exposure time: 5 days
Outline: as §1

Test System | surviving fraction (GEFITINIB; 0.5 nM) | surviving fraction (GEFITINIB; 1 nM) | surviving fraction (GEFITINIB; 5 nM) | surviving fraction (GEFITINIB; 10 nM) | surviving fraction (GEFITINIB; 50 nM) | surviving fraction (GEFITINIB; 100 nM) | surviving fraction (GEFITINIB; 500 nM) | surviving fraction (GEFITINIB; 1000 nM) | surviving fraction (CELECOXIB; 0.5 nM) | surviving fraction (CELECOXIB; 1 nM) | surviving fraction (CELECOXIB; 5 nM) | surviving fraction (CELECOXIB; 10 nM) | surviving fraction (CELECOXIB; 50 nM) | surviving fraction (CELECOXIB; 100 nM) | surviving fraction (CELECOXIB; 500 nM) | surviving fraction (CELECOXIB; 1000 nM)
SG27 HEADNECK | 1.11 ± 0.041 | 1.1 ± 0.074 | 1.03 ± 0.037 | 1.16 ± 0.12 | 1.14 ± 0.13 | 1.12 ± 0.13 | 1.09 ± 0.024 | 1.11 ± 0.016 | 1.18 ± 0.086 | 1.14 ± 0.069 | 1.14 ± 0.09 | 1.13 ± 0.046 | 1.3 ± 0.084 | 1.17 ± 0.23 | 1.12 ± 0.15 | 1.21 ± 0.081
SG28 HEADNECK | 1.14 ± 0.071 | 1.2 ± 0.037 | 1.06 ± 0.075 | 1.03 ± 0.035 | 0.758 ± 0.069 | 0.679 ± 0.033 | 0.501 ± 0.059 | 0.504 ± 0.016 | 1.19 ± 0.26 | 1.19 ± 0.04 | 1.24 ± 0.099 | 1.2 ± 0.13 | 1.2 ± 0.18 | 1.233 ± 0.0057 | 1.16 ± 0.027 | 1.29 ± 0.059
SG31 HEADNECK | 1.14 ± 0.13 | 1.09 ± 0.18 | 1.1 ± 0.28 | 1.11 ± 0.24 | 0.855 ± 0.24 | 0.845 ± 0.23 | 0.732 ± 0.2 | 0.54 ± 0.11 | 1.27 ± 0.19 | 1.4 ± 0.5 | 1.11 ± 0.21 | 1.11 ± 0.25 | 1.15 ± 0.17 | 1.1 ± 0.063 | 1.63 ± 0.2 | 1.52 ± 0.15
SG32 HEADNECK | 1.33 ± 0.14 | 1.37 ± 0.097 | 1.39 ± 0.32 | 1.19 ± 0.24 | 1.28 ± 0.066 | 1.1 ± 0.12 | 0.826 ± 0.15 | 0.961 ± 0.094 | 1.37 ± 0.15 | 1.15 ± 0.063 | 1.29 ± 0.13 | 1.18 ± 0.26 | 1.22 ± 0.063 | 1.1 ± 0.12 | 1.64 ± 0.21 | 1.19 ± 0.062
SG43 HEADNECK | 1.36 ± 0.4 | 1.21 ± 0.45 | 0.814 ± 0.26 | 0.825 ± 0.2 | 0.649 ± 0.17 | 0.406 ± 0.034 | 0.264 ± 0.033 | 0.21 ± 0.043 | 0.96 ± 0.3 | 1.22 ± 0.49 | 0.942 ± 0.31 | 0.929 ± 0.28 | 0.938 ± 0.21 | 1.14 ± 0.051 | 1.04 ± 0.035 | 1.08 ± 0.08
SIHA CERVIX | 1.01 ± 0.017 | 1.01 ± 0.076 | 1.08 ± 0.053 | 1.07 ± 0.091 | 1.12 ± 0.11 | 1.1 ± 0.059 | 0.99 ± 0.084 | 0.956 ± 0.061 | 1.08 ± 0.065 | 1 ± 0.064 | 1.08 ± 0.033 | – | 1.06 ± 0.072 | 1.11 ± 0.026 | 1.07 ± 0.067 | 1.05 ± 0.064
SKBR3 BREAST | 1 ± 0.18 | 1.04 ± 0.14 | 1.04 ± 0.089 | 1.02 ± 0.11 | 1 ± 0.062 | 0.844 ± 0.026 | 0.361 ± 0.0087 | 0.249 ± 0.03 | 1.15 ± 0.096 | 1.11 ± 0.11 | 1.019 ± 0.0061 | 1.02 ± 0.085 | 0.999 ± 0.091 | 1.07 ± 0.042 | 0.996 ± 0.17 | 1.08 ± 0.063
